From patent publication US20200305437A1, “SYNERGISTIC ANTIMICROBIAL COMBINATIONS CONTAINING QUATERNARY AMMONIUM BIOCIDE” (LONZA, LLC, priority 2016, published 2020) come the findings set out here.

Common to all, as to assay: Minimum inhibitory concentration, microtitre plate doubling dilutions
Common to all, as to format: cell-based

In assay [1] the test system is Staphylococcus aureus. The settings on record: for MIC versus organism S.a: biocide alone, visual growth after 24 hours at 37° C. On the procedure: (§1) Bacteria were grown to stationary phase (18 h) in nutrient broth (approximately 10^9 organisms per ml). A 0.1% (v/v) inoculum was used to seed fresh medium and 100 μl of this was added to each well of a microtitre plate, except for the first well which contained 200 μl. Using doubling dilutions, the concentration of each antimicrobial was varied in each well along the ordinate axis. The presence or absence of growth was determined by visual inspection after 24 hours incubation at 37° C.

Assay [2] relates to Pseudomonas aeruginosa. As to conditions: for MIC versus organism Ps.a: biocide alone, visual growth after 24 hours at 37° C. On the procedure: as §1
Assay [3] deals with Escherichia coli. The settings on record: for MIC versus organism E.c: biocide alone, visual growth after 24 hours at 37° C. On the procedure:
as §1

As to “N,N-Didecyl-N-methyl-poly(oxyethyl)ammonium propionate [Bardap 26]”, the “MIC versus organism S.a” value in assay [1] amounted to 1 ppm. In addition, the “MIC versus organism Ps.a” value in assay [2] is listed as 16 ppm. Besides, the “MIC versus organism E.c” value in assay [3] is recorded as 4 ppm.
Taken in the same sequence, the figures for “Didecyl dimethyl ammonium carbonate/bicarbonate [Carboquat HE]” were 1 ppm, 8 ppm and 4 ppm.
Taken in the same sequence, the figures for `CCCCCCCCCCCCN(CCCN)CCCN` [Lonzabac 12.30, N-3-aminopropyl-N-dodecylpropane-1-3-diamine] were 8 ppm, 32 ppm and 16 ppm.
Take `CCCCCCCCCC[N+](C)(C)CCCCCCCCCC.[Cl-]` [Bardac 22.70, Didecyldimethyl ammonium chloride]: the MIC in assay [1] (Staphylococcus aureus, 24 h, read-out: MIC versus organism S.a) is 1 µg/mL; in assay [2] (Pseudomonas aeruginosa, 24 h, read-out: MIC versus organism Ps.a), 8 µg/mL; in assay [3] (Escherichia coli, 24 h, read-out: MIC versus organism E.c), 4 µg/mL.
`[Na+].[O-][n+]1ccccc1[S-]` [Sodium Omadine, Na pyrithione]: in assay [1], the “MIC versus organism S.a” value came to 1 ppm. In addition, the “MIC versus organism Ps.a” value in assay [2] is 16 ppm. Further, the “MIC versus organism E.c” value in assay [3] worked out at 500 ppm.
On to “Benzyl C12-16 alkyl dimethyl chlorides [Barquat DM-80]”, for which the “MIC versus organism S.a” value in assay [1] is on record as 2 ppm. The “MIC versus organism Ps.a” value in assay [2] is listed as 32 ppm. Further, in assay [3], the “MIC versus organism E.c” value came out at 12 ppm.
Taken in the same sequence, the figures for “Alkyldimethylbenzylammonium chloride [Barquat 4214]” were 2 ppm, 32 ppm and 8 ppm.
